Experimental findings from patent US11401256B2, “Dihydroquinolinones for medical treatment” (C4 Therapeutics, Inc., priority 2017, dated 2022) are described below.

Molecules are shown by their SMILES.

The assay addresses h-Cereblon_DDB1 (hCereblon(M1-L442)_hDDB1(M1-H1140)) (Homo sapiens (Human), UniProt Q96SW2). The experiment in a line: Fluorescence direct binding (tryptophan fluorescence titration). To be noted: 20° C., excitation 280 nm, emission 340 nm, 1:1 protein-ligand complex; read-out: Fluorescence h-Cereblon_DDB1 Mean Kd_EQ.

h-Cereblon_DDB1 (hCereblon(M1-L442)_hDDB1(M1-H1140)), sequence (Q96SW2 whole entry): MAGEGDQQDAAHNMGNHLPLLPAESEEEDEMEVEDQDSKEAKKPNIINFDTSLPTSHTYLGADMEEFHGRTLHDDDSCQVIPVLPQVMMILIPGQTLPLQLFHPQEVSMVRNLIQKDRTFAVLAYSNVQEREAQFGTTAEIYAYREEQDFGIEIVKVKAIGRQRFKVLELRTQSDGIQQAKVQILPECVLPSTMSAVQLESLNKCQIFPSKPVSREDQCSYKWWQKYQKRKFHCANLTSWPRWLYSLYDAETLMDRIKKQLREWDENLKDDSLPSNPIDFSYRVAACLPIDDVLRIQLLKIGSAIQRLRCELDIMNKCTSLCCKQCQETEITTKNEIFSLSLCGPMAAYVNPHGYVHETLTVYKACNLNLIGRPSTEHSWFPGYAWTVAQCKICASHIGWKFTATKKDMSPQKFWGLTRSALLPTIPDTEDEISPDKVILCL
h-Cereblon_DDB1 (hCereblon(M1-L442)_hDDB1(M1-H1140)), sequence (Q16531 whole entry partner): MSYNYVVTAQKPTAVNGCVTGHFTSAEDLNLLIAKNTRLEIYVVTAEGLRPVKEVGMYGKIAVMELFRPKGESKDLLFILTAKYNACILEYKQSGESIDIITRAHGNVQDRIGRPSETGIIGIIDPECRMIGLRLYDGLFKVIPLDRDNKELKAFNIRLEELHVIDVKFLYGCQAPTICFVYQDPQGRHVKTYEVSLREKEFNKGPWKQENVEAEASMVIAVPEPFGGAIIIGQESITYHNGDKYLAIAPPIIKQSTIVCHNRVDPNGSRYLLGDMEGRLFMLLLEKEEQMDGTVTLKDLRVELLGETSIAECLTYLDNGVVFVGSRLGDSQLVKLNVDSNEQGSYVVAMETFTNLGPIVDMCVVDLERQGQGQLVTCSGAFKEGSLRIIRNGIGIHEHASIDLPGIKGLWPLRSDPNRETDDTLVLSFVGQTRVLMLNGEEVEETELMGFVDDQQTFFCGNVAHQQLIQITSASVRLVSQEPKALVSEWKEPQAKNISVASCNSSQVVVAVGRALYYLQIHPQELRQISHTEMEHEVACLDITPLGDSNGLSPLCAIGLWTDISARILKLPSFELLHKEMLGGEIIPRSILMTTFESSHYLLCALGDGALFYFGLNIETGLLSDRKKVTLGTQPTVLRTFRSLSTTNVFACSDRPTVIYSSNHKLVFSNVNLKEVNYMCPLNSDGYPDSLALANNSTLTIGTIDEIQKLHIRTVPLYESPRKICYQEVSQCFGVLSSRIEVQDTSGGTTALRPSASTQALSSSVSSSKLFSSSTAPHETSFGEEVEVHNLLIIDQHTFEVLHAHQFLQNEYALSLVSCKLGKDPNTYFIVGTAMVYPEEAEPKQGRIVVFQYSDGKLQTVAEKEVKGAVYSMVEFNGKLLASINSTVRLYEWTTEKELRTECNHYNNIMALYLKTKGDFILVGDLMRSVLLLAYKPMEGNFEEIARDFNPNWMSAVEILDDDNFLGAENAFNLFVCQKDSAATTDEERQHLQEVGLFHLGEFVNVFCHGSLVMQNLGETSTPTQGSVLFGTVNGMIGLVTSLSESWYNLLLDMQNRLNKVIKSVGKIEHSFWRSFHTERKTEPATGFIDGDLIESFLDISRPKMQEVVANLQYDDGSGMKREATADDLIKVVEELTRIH
Procedure: Determination of the affinities of compounds to protein containing one or more tryptophan is measurable by monitoring the fluorescence emission in direct mode. The measurements depending on the protein available amounts are performed either manually in a cuvette on ISS-PC1 photon counting spectrofluorometer or automatically in well plates on a fluorescence plate reader device. Fluorescence titrations are performed at 20° C. in the chosen binding assay buffer by using a defined constant protein concentration against ligand concentration variations. Small aliquots of known ligand concentration solubilized in DMSO were added and the fluorescence, excited at 280 nm, was recorded at 340 nm. The fluorescence intensity was corrected for protein dilution and for the filter effect (Birdsall et al.^37). The corrected fluorescence intensity was plotted against the ligand concentration and fitted using a four-parameter sigmoidal function, from which the equilibrium dissociation constant Kd was computed using the law of mass action assuming a 1:1 protein-ligand complex (Eftink, 1997^38).
Process • 1) Optimization of measurement parameters to minimize protein consumption and to minimize the dilution effect and the DMSO content • 2) Titration measurements of the protein against ligand by at least 12 titration steps to obtain a good s-curve fit • 3) Repeat the same titration measurements with the ligand alone to enable correction • 4) Check the stability of the protein once by titration against DMSO alone • 5) Determination of the molar extinction coefficients of the ligand at 280 and 340 nm with help of a UV-spectrophotometer • 6) Use Excel template for the correction of the measured raw data • 7) Use GraphPad Prism software for the quadratic binding fit and the Kd evaluation.

With `CNC(=O)c1ccc2c(c1)nc(-c1cc(OC)ncc1F)n2-c1ccc2c(c1)CCC(=O)N2` [Example 44, 2-(5-Fluoro-2-methoxy-4-pyridyl)-N-methyl-1-(2-oxo-3,4-dihydro-1H-quinolin-6-yl)benzimidazole-5-carboxamide], the Kd came out at 10 nM. With `CNC(=O)c1ccc2c(c1)nc(-c1ccnc(OC)c1)n2-c1cnc2c(c1)CCC(=O)N2` [Example 29, 2-(2-Methoxy-4-pyridyl)-N-methyl-1-(7-oxo-6,8-dihydro-5H-1,8-naphthyridin-3-yl)benzimidazole-5-carboxamide] the figure was 35 nM; with `CC(=O)N1CCC(NC(=O)c2ccc3c(c2)CCC(=O)N3)CC1` [Example 57, N-(1-Acetyl-4-piperidyl)-2-oxo-3,4-dihydro-1H-quinoline-6-carboxamide], 41 nM. With `Cc1sc2c(c1C)C(c1ccc(Cl)cc1)=N[C@@H](CC(=O)NCCOCCOCCNC(=O)c1ccc3c(c1)nc(-c1cc(-c4cncn4C)nc4ccccc14)n3-c1ccc3c(c1)CCC(=O)N3)c1nnc(C)n1-2` [Example C, N-(2-(2-(2-(2-((6S)-4-(4-Chlorophenyl)-2,3,9-trimethyl-6H-thieno[3,2-f][1,2,4]triazolo[4,3-a][1,4]diazepin-6-yl)acetamido)ethoxy)ethoxy)ethyl)-2-(2-(1-methyl-1H-imidazol-5-yl)quinolin-4-yl)-1-(2-oxo-1,2,3,4-tetrahydroquinolin-6-yl)-1H-benzo[d]imidazole-5-carboxamide] the figure was 524 nM.

In the case of `CNC(=O)c1ccc2c(c1)nc(-c1cccc(OC)n1)n2-c1ccc2c(c1)CCC(=O)N2` [Example 23, 2-(6-Methoxypyridin-2-yl)-N-methyl-1-(2-oxo-1,2,3,4-tetrahydroquinolin-6-yl)-1H-benzo[d]imidazole-5-carboxamide], the Kd was found to be 15 nM.

For `O=C1CCc2cc(NC(=O)C3CCCc4ccccc43)cnc2N1` (racemic) [Example 21, (RS)—N-(7-Oxo-5,6,7,8-tetrahydro-1,8-naphthyridin-3-yl)-1,2,3,4-tetrahydronaphthalene-1-carboxamide], the Kd stood at 4 nM. With `CNC(=O)c1ccc2c(c1)nc(CO)n2-c1ccc2c(c1)CCC(=O)N2` [Example 15, 2-(Hydroxymethyl)-N-methyl-1-(2-oxo-1,2,3,4-tetrahydroquinolin-6-yl)-1H-benzo[d]imidazole-5-carboxamide] the figure was 11 nM; with `CNC(=O)c1ccc2c(c1)nc(-c1cc(OC)ccc1C)n2-c1ccc2c(c1)CCC(=O)N2` [Example 33, 2-(5-Methoxy-2-methyl-phenyl)-N-methyl-1-(2-oxo-3,4-dihydro-1H-quinolin-6-yl)benzimidazole-5-carboxamide], 45 nM; with `CNC(=O)c1ccc2c(c1)nc(-c1ccc(OC)nc1)n2-c1ccc2c(c1)CCC(=O)N2` [Example 24, 2-(6-Methoxypyridin-3-yl)-N-methyl-1-(2-oxo-1,2,3,4-tetrahydroquinolin-6-yl)-1H-benzo[d]imidazole-5-carboxamide], 12 nM. The figure for `O=C1CCc2cc(C(=O)N3CCCc4ccccc43)cnc2N1` [Example 60, 6-(3,4-Dihydro-2H-quinoline-1-carbonyl)-3,4-dihydro-1H-1,8-naphthyridin-2-one] is 1 nM; for `COC(=O)c1ccc2c(c1)nc(-c1ccnc(OC)c1)n2-c1ccc2c(c1)CCC(=O)N2` [Example 22, Methyl 2-(2-methoxypyridin-4-yl)-1-(2-oxo-1,2,3,4-tetrahydroquinolin-6-yl)-1H-benzo[d]imidazole-5-carboxylate] it is 4 nM.

On to `O=C1CCc2cc(-n3ccnc3)cnc2N1` [Example 9, 6-(1H-Imidazol-1-yl)-3,4-dihydro-1,8-naphthyridin-2(1H)-one], for which the Kd worked out at 16 nM. Take `O=C1CCc2ccc(-n3ccnc3)cc2N1` [Example 53, 7-(1H-Imidazol-1-yl)-3,4-dihydroquinolin-2(1H)-one]: the Kd was 16 nM. With `CNC(=O)c1ccc2c(c1)nc(Cc1ccc(C(F)(F)F)cc1OC)n2-c1ccc2c(c1)CCC(=O)N2` [Example 47, 2-[[2-Methoxy-4-(trifluoromethyl)phenyl]methyl]-N-methyl-1-(2-oxo-3,4-dihydro-1H-quinolin-6-yl)benzimidazole-5-carboxamide] the figure was 17 nM.

Regarding `CNC(=O)c1ccc2c(c1)nc(-c1cc(OC)ccc1F)n2-c1ccc2c(c1)CCC(=O)N2` [Example 35, 2-(2-Fluoro-5-methoxy-phenyl)-N-methyl-1-(2-oxo-3,4-dihydro-1H-quinolin-6-yl)benzimidazole-5-carboxamide], the Kd worked out at 14 nM.

As for `COC(=O)c1ccc(Nc2ccc3c(c2)CCC(=O)N3)cc1` [Example 19, Methyl 4-((2-oxo-1,2,3,4-tetrahydroquinolin-6-yl)amino)benzoate], the Kd turned out to be 30 nM.

With `CNC(=O)c1ccc2c(c1)nc(-c1cc(-c3cncn3C)nc3ccccc13)n2-c1ccc2c(c1)CCC(=O)N2` [Example 2, N-Methyl-2-[2-(3-methylimidazol-4-yl)-4-quinolyl]-1-(2-oxo-3,4-dihydro-1H-quinolin-6-yl)benzimidazole-5-carboxamide], the Kd is 40 nM.

With `O=C1CCc2cc(C(=O)N3CCc4cccnc43)cnc2N1` [Example 59, 6-(2,3-Dihydropyrrolo[2,3-b]pyridine-1-carbonyl)-3,4-dihydro-1H-1,8-naphthyridin-2-one], the Kd is 3 nM. The figure for `O=C1CCc2cc(C(=O)N3CCc4ccccc43)cnc2N1` [Example 58, 6-(Indoline-1-carbonyl)-3,4-dihydro-1H-1,8-naphthyridin-2-one] is 62 nM. Regarding `O=C1CCc2cc(C(=O)N3CCc4cccnc43)ccc2N1` [Example 55, 6-(2,3-Dihydropyrrolo[2,3-b]pyridine-1-carbonyl)-3,4-dihydro-1H-quinolin-2-one], the Kd is 23 nM. With `Cc1sc2c(c1C)C(c1ccc(Cl)cc1)=N[C@@H](CC(=O)NCCCCCCCCCCNC(=O)c1ccc3c(c1)nc(-c1cc(-c4cncn4C)nc4ccccc14)n3-c1ccc3c(c1)CCC(=O)N3)c1nnc(C)n1-2` [Example A, N-(10-(2-((6S)-4-(4-Chlorophenyl)-2,3,9-trimethyl-6H-thieno[3,2-f][1,2,4]triazolo[4,3-a][1,4]diazepin-6-yl)acetamido)decyl)-2-(2-(1-methyl-1H-imidazol-5-yl)quinolin-4-yl)-1-(2-oxo-1,2,3,4-tetrahydroquinolin-6-yl)-1H-benzo[d]imidazole-5-carboxamide], the Kd worked out at 338 nM. The figure for `Cc1sc2c(c1C)C(c1ccc(Cl)cc1)=N[C@@H](CC(=O)NCCCCCNC(=O)c1ccc3c(c1)nc(-c1cc(-c4cncn4C)nc4ccccc14)n3-c1ccc3c(c1)CCC(=O)N3)c1nnc(C)n1-2` [Example B, N-(5-(2-((6S)-4-(4-Chlorophenyl)-2,3,9-trimethyl-6H-thieno[3,2-f][1,2,4]triazolo[4,3-a][1,4]diazepin-6-yl)acetamido)pentyl)-2-(2-(1-methyl-1H-imidazol-5-yl)quinolin-4-yl)-1-(2-oxo-1,2,3,4-tetrahydroquinolin-6-yl)-1H-benzo[d]imidazole-5-carboxamide] is 258 nM. The figure for `CC(C)c1nc2ccccc2n1-c1ccc2c(c1)CNC(=O)N2` [Example 61, 6-(2-Isopropyl-1H-benzo[d]imidazol-1-yl)-3,4-dihydroquinazolin-2(1H)-one] is 171 nM; for `CNC(=O)c1ccc2c(c1)nc(C(C)C)n2-c1ccc2c(c1)CNC(=O)N2` [Example 62, 2-Isopropyl-N-methyl-1-(2-oxo-1,2,3,4-tetrahydroquinazolin-6-yl)-1H-benzo[d]imidazole-5-carboxamide] it is 120 nM.

`Cn1cncc1-c1cc(C(=O)Nc2ccc3c(c2)CCC(=O)N3)c2ccccc2n1` [Example 5]: the Kd worked out at 677 nM.
